Measured values: US20260139254A1, “INTERFERING RNA FOR INHIBITING TOP1 GENE EXPRESSION AND USE THEREOF” (JENKEM TECHNOLOGY CO., LTD. (BEIJING), priority 2022, published 2026)
[Ψ] = pseudouridine; d = 2'-deoxy (DNA); r = 2'-OH (RNA)

Assays:
[1] = test system: HCT116 human colon cancer cells; test: Toxicity of LNP-siTOP1 and irinotecan on HCT116 cells (CCK-8 cell viability); format: cell-based; settings: Homo sapiens, HCT-116; HCT116, 72 h, CCK-8
Method: (§1) After 72 h of transfection, 10 μL of CCK-8 solution was added to each well, and the cells were cultured in the incubator with 5% CO2 at 37° C. for another 4 h. The absorbance value at 450 nm was measured using a microplate reader. Cell viability was calculated according to the following formula: […]
(§2) On the day before transfection, HCT116 human colon cancer cells were seeded into a 96-well cell culture plate at 5000 cells/well, the culture medium being IMDM containing 10% FBS and 1% Penicillin-Streptomycin, and after plating, the cell culture plate was placed in an incubator with 5% CO2 at 37° C. for 24 h to allow the cells to adhere to the wall. 3 replicate wells were made for each group. On the day of transfection, the culture medium was changed to an IMDM culture medium without antibiotics (containing 10% FBS). LNP-siTOP1-1604 diluted with Opti-MEM culture medium was added, and the working concentrations of the siRNA were 500, 200, 100, 50, 20, and 5 nM. The control groups were Blank (Opti-MEM at the equal volume) and the positive control drug, irinotecan, at concentrations of 500, 200, 100, 50, 20, 5, and 1 μM. The cell culture plate was placed in the incubator with 5% CO2 at 37° C., and the cells were cultured for another 72 h. The cell viability was detected according to the method in Example 3 (Table 10). Fitting was performed using Graphpad software.

[2] = as above; format: cell-based, human; settings: human, HCT116 colon cancer cells, HCT116, 72 h
Method: as §1, §2

TOP1 mRNA = test: Inhibitory effects of modified sequences of siTOP1-1604 on TOP1 mRNA in PC-3 cells; format: cell-based, human; settings: PC-3, siRNA 50 nM
Method: PC-3 human prostate cancer cells were transfected with the modified siTOP1 according to the method in Example 2 at a siRNA working concentration of 50 nM. TOP1 mRNA levels were detected 48 h after the transfection. The control groups were Blank (Opti-MEM at the equal volume), Lipofectamine™ RNAiMAX (Lipo) transfection reagent, and the positive control unmodified siTOP-1604.

Molecule | IC50 [1] [µM] | viability at 72 h, 1 µM ([2]; 1 μM) [%] | viability at 72 h, 5 µM ([2]; 5 μM) [%] | viability at 72 h, 20 µM ([2]; 20 μM) [%] | viability at 72 h, 50 µM ([2]; 50 μM) [%] | viability at 72 h, 100 µM ([2]; 100 μM) [%] | viability at 72 h, 200 µM ([2]; 200 μM) [%] | viability at 72 h, 500 µM ([2]; 500 μM) [%] | Expression of TOP1 mRNA inhibited to (TOP1 mRNA; 48 h, compared to the control groups) [%] | Relative expression level, mean value (TOP1 mRNA; 48 h after transfection, Blank = 100.00)
CCc1c2c(nc3ccc(OC(=O)N4CCC(N5CCCCC5)CC4)cc13)-c1cc3c(c(=O)n1C2)COC(=O)[C@]3(O)CC [Irinotecan] | 9.33 | 109 | 55.4 | 31.8 | 16.9 | 9.69 | 8.18 | 11.9 |  | 
siTOP1-1604-m4: Pseudouridine-modified siTOP1-1604; sense strand SEQ ID NO: 55, antisense strand SEQ ID NO: 56 (sense GUGUGGACAAGAUCCGGAATT; antisense UUCCGGAUCUUGUCCACACTT; sense: sugars from the 5' end r19 d2, [Ψ] at 2, 4, 13, backbone not given here; antisense: sugars from the 5' end r19 d2, [Ψ] at 1, 2, 8, 10, 11, 13, backbone not given here) |  |  |  |  |  |  |  |  | 4.3 | 4.30
